How the values were obtained:
[1] = Preservation of color and viscosity of the composition over time; assay type: physicochemical; details: used instead of ascorbic acid in the gel
Protocol: Gels were prepared according to the mixing procedure of Example 1, but with amounts of the ingredients to achieve molarities of those ingredients as shown below. Euxyl® PE9010 is a preservative having phenoxyethanol as the active ingredient (Schülke and Mayr, 30 Two Bridges Road Suite 225, Fairfield, N.J. 07004, USA).

[2] = cited from earlier work

CCOC1=C(O)C(=O)O[C@@H]1[C@@H](O)CO [3-O-ethyl ascorbic acid]
color and viscosity stability of composition [1]: preserves the color and viscosity of the composition over long periods of time

O=NO [Nitrous acid]
pKa [2]: 3.37

Source: US20130330244A1, “COMPOSITIONS AND METHODS FOR TOPICAL NITRIC OXIDE GENERATION” (NIOXX LLC, priority 2011, published 2013)
